The target of experiment [1] is EZH2 (Homo sapiens, UniProt Q15910). Kind of experiment: EZH2 Assay (3H SAM methyl transfer, rPRC2, FlashPlate). The note with it: rPRC2, biotinylated oligonucleosomes, 0.2 μM 3H SAM, 2 nM EZH2. It counts as biochemical. As to the method: (§1) EZH2 Assay: Assays were carried out by mixing rPRC2 together with biotinylated oligonucleosome substrates in the presence of the radio-labeled enzyme co-factor, S-adenosyl-L-methionine (^3H SAM) (Perkin Elmer) and monitoring the enzymatically mediated transfer of tritiated methyl groups from ^3H SAM to histone lysine residues. The amount of resulting tritiated methyl histone product was measured by first capturing the biotinylated oligonucleosomes in streptavidin (SAV) coated FlashPlates (Perkin Elmer), followed by a wash step to remove unreacted ^3H SAM, and then counting on a TopCount NXT 384 well plate scintillation counter (Perkin Elmer). The final assay conditions for EZH2 were as follows: 50 mM Tris Buffer pH 8.5, 1 mM DTT, 69 μM Brij-35 detergent, 5.0 mM MgCl2, 0.1 mg/mL BSA, 0.2 μM ^3H SAM, 0.2 μM biotinylated oligonucleosomes, 3.6 μM H3K27me3 peptide and 2 nM EZH2.
(§2) Compound IC50 measurements were obtained as follows: Compounds were first dissolved in 100% DMSO as 10 mM stock solutions. Ten point dose response curves were generated by dispensing varying amounts of the 10 mM compound solution in 10 wells of the 384 well plate (Echo; Labcyte), pure DMSO was then used to backfill the wells to insure all wells have the same amount of DMSO. A 12.5 μL volume of the HMT enzyme, H3K27me3 peptide and oligonucleosome substrate in assay buffer was added to each well of the assay plate using a Multidrop Combi (ThermoFisher). Compounds were pre-incubated with the enzyme for 20 min, followed by initiation of the methyltransferase reaction by addition of 12.5 μL of ^3H SAM in assay buffer (final volume=25 μL). The final concentrations of compounds ranged from a top default concentration of 80 μM down to 0.16 μM in ten 2-fold dilution steps. Reactions were carried out for 60 minutes and quenched with 20 μL per well of 1.96 mM SAH, 50 mM Tris pH 8.5, 200 mM EDTA. Stopped reactions were transferred to SAV coated Flashplates (Perkin Elmer), incubated for 120 min, washed with a plate washer, and then read on the TopCount NXT (1.0 min/well) to measure the amount of methyl histone product formed during the reaction. The amount of methyl histone product was compared with the amount of product formed in the 0% and 100% inhibition control wells allowing the calculation of % Inhibition in the presence of the individual compounds at various concentrations. IC50's were computed using a 4 parameter fit non-linear curve fitting software package (XLFIT, part of the database package, ActivityBase (IDBS)) where the four parameters were IC50, Hill slope, pre-transitional baseline (0% INH), and post-transitional baseline (100% INH); with the latter two parameters being fixed to zero and 100%, respectively, by default.

The target of experiment [2] is Y641N EZH2 (Homo sapiens, UniProt Q15910, Y641N). Kind of experiment: Assay for Y641N EZH2 (as the EZH2 assay, H3K27Me2 oligonucleosomes as substrate). It counts as biochemical. To be noted: Y641N EZH2 mutant, reconstituted H3K27Me2 oligonucleosomes as substrate. As to the method:
as §1, §2
Assay for Y641N EZH2 was performed as above using reconstituted H3K27Me2 oligonucleosomes as substrate.

In experiment [3] the test system is H3K27me3 mark in Hela cells expressing wild type EZH2. Kind of experiment: H3K27me3 MSD Hela Assay. The note with it: read-out: H3K27me3_MSD_HeLa (EC50). The class given is cell-based. As to the method:
H3K27me3 MSD Hela Assay. Trypsinized HeLa cells were counted and diluted in 10% DMEM (Life Technologies, Cat. #10569) to 5000 cells/75 μL. Seventy-five μL of cells were place in each well of a 96-well flat-bottomed plate and incubated at 37° C. for 4 hours. Twenty-five μL of test compound (at various concentrations) was added to the cells and incubation continued at 37° C. for 96 hours. Media was then removed and the cells rinsed once with ice cold PBS. Forty μL of ice-cold MSD Buffer AT (10 mM HEPES, pH 7.9, 5 mM MgCl2, 0.25M sucrose, Benzonase (1:10000), 1% Triton X-100 supplemented with fresh 1× Protease Inhibitor cocktail and 1 mM 4-(2-Aminoethyl)benzenesulfonyl fluoride hydrochloride (AEBSF)) was added to each well and the plates placed on ice for 30 minutes. Ten μL of 5M NaCl was then added to each well and incubation on ice continued for another 15 minutes. The material in each well was suspended pipetting up and down and then transferred to a new 96 well plate. The emptied wells were rinsed with 150 uL ice-cold 20 mM Tris pH 7.5, 1 mM EDTA, 1 mM EGTA, supplemented with fresh 1× Protease Inhibitor cocktail and 1 mM AEBSF (“NO salt NO detergent buffer) and transferred to the respective wells in the new plate. Three hundred μL of NO Salt NO detergent buffer was then added to each well of lysates and the plates frozen at −80° C.
On the same day, an appropriate number of MSD standard bind 96-well plates were coated with 30 μL/well of total H3 capture antibody (Millipore, Cat # MAB3422) at 1 μg/mL concentration in PBS. The antibody solution was evenly distributed first by tapping gently on the sides of the plates and then by shaking the plates for a few minutes at 1000 rpm. Antibody coated plates were stored at 4° C. overnight.
The next day the lysates are thawed to RT. The antibody coated MSD plates are washed 3× with TBS-T (Tris-buffered saline (Fisher Scientific, Cat #BP2471-1)+0.2% Tween-20). One-hundred fifty μL of 5% Blocker A in TBS-T is added to each well. The wells are covered and shaken on a shaker at RT for one hour. The Blocker A step is repeated a second time. After removing the blocker, 25 μL of cell lysate is transferred into each antibody coated well. The plates are shaken for 2 hours at RT, the lysate removed and the plates again washed with Blocker A in TBS-T. Twenty-five μL of appropriate freshly prepared antibody mix (including both primary and secondary antibodies) is added to each well and the plates shaken for 1 hour at RT.
Both H3 antibodies were obtained from Cell Signalling (Cat #s 4499 and 9733). The goat anti-rabbit antibody was obtained from Meso-Scale Discovery (Cat #R32AB-1).
The antibody mix was then removed and the wells washed with Blocker A. One hundred-fifty μL of freshly prepared 1×MSD Read Buffer (Meso-Scale Discovery; Cat #R927C-2) was then added to each well and the plates read on a MSD Sector 2400 Plate Reader.
(§3) Data was analyzed using Assay Assistant (Constellation Pharmaceuticals In-house product) and Activity Base (IDBS Ltd, Surrey, UK) template. Data files were imported to Assay Assistant and assay conditions were specified. A unique Analysis ID was created and the data files exported to Activity Base. An analysis template was created on Activity Base to measure dose-dependent inhibition of H3K27me3 mark and cell viability respectively. Readout of DMSO wells were used to normalize the data. Resulting curves were fitted using Activity base software Model 205 (IDBS Ltd, Surrey, UK). The data was checked for quality, validated and integrated in excel format using SARview (IDBS Ltd, Surrey, UK).

Experiment [4] shares this test system. Kind of experiment: H3K27me3 Alpha Hela Assay (AlphaLISA). It counts as cell-based. The note with it: Homo sapiens, 72 hrs, read-out: H3K27me3_Alpha_HeLa (EC50). As to the method:
H3K27me3 Alpha Hela Assay (AlphaLISA). Ten different doses of each test compound (in a series of 3-fold dilutions) were plated in duplicate 384-well tissue culture treated plates (Catalog #781080; Greiner Bio One; Monroe, N.C.). Hela cells grown in culture were trypsinized and counted using a Countess® cell counter (Catalog # C10281; Life Technologies, Grand Island, N.Y.). Cell were diluted to 67,000 cells per mL in 10% DMEM (Catalog #10569-010 Life Technologies, Grand Island, N.Y.) and 15 μL (1,000 cells) were plated into each well using the Biotek MicroFlo™ Select Dispenser (BioTek Instruments, Inc. Vermont, USA),) of the 384-well plate. Plates were incubated at 37° C./5% CO2 for 72 hrs. One of the duplicate plates was processed for HeLa assay and the other for viability.
To the plate processed for AlphaLISA was added 5 μL per well Cell-Histone Lysis buffer (1×) (Catalog # AL009F1 Perkin Elmer; Waltham, Mass.) and the plate was incubated at RT for 30 minutes on a plate shaker with low speed (Model#4625-Q Thermo Scientific; Waltham, Mass.). Then, 10 μL per well Histone Extraction buffer (catalog # AL009F2; Perkin Elmer; Waltham, Mass.) was added and the plate further incubated at RT for 20 min on plate shaker with low speed. To each well was then added 10 μL per well of a 5× mix of anti-K27me3 acceptor beads plus Biotinylated anti-Histone H3 (C-ter) Antibody (diluted to 3 nM final) (Catalog #AL118 Perkin Elmer; Waltham, Mass.). Dilution of the acceptor beads and then anti-Histone H3 was with 1× Histone Detection buffer (Catalog # AL009F3 Perkin Elmer; Waltham, Mass.) which was produced diluted from the 10× stock provided. The plate was sealed with an aluminum plate sealer and incubated at 23° C. for 60 min. We then added 10 μL 5× solution of Streptavidin Donor beads (Catalog #6760002 Perkin Elmer; Waltham, Mass.) (20 μg/mL final in 1× Histone Detection Buffer), sealed the plate with Aluminum plate sealer and incubated at 23° C. for 30 min. The plates were then read using an EnVision-Alpha Reader (model #2104 Perkin Elmer; Waltham, Mass.).
as §3, with “Data from both assays was analyzed” for “Data was analyzed”

Chain of EZH2 (Q15910 whole entry): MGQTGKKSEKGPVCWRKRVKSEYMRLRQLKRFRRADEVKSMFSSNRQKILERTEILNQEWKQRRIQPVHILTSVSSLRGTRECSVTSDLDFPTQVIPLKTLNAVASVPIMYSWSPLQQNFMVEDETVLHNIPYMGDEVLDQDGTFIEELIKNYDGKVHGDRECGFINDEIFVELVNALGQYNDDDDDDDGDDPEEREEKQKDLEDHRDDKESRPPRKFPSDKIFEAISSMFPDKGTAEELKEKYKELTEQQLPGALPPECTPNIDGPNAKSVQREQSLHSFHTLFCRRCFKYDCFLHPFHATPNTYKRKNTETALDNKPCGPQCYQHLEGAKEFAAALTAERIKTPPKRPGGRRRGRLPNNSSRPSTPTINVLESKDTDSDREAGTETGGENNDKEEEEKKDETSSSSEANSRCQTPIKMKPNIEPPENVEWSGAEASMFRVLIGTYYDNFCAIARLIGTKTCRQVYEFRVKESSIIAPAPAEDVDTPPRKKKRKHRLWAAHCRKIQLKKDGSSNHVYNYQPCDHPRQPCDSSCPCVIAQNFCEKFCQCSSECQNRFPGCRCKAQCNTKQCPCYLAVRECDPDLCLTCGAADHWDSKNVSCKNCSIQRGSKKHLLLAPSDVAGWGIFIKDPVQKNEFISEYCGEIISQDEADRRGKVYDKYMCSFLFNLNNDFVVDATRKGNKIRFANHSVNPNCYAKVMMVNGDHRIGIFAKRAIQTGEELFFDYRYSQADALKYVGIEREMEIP
Chain of EZH2 (O75530 whole entry partner): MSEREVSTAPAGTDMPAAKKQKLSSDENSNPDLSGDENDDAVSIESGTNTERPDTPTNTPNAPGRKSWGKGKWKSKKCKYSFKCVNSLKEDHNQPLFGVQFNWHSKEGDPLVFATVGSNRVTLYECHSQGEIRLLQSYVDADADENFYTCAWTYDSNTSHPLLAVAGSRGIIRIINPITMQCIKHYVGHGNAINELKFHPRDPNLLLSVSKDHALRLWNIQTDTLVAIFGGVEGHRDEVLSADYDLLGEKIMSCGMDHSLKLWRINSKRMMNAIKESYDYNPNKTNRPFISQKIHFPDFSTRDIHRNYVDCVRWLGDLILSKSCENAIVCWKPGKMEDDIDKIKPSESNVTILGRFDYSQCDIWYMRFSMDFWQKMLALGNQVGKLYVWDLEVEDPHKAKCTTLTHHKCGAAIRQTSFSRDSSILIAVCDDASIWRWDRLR
Chain of EZH2 (Q15022 whole entry partner): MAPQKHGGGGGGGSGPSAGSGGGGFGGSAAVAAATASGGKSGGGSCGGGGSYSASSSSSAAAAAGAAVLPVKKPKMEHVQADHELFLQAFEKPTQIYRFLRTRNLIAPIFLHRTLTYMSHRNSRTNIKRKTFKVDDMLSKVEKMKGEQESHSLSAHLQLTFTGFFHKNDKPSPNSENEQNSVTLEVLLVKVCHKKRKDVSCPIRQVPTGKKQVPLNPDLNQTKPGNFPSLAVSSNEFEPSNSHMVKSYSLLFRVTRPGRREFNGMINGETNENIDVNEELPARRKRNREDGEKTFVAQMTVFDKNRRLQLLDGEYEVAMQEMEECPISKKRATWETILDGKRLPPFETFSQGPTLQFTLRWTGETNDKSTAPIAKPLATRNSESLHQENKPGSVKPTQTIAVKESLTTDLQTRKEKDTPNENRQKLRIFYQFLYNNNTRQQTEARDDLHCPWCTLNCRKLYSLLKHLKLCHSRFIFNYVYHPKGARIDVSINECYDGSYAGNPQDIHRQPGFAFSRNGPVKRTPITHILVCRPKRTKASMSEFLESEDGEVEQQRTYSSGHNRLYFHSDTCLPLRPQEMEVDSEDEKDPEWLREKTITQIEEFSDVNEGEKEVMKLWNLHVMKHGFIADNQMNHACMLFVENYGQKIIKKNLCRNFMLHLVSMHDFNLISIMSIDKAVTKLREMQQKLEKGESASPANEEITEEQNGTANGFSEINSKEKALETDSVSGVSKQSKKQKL
Chain of Y641N EZH2 (Q15910 whole entry Y641N): as the sequence (Q15910 whole entry) above, with Y641N counted along it
Chain of Y641N EZH2 (O75530 whole entry partner): as the sequence (O75530 whole entry partner) above
Chain of Y641N EZH2 (Q15022 whole entry partner): as the sequence (Q15022 whole entry partner) above

On to `COc1cc(C)[nH]c(=O)c1CNC(=O)c1c(C)c(C(C)N(C)S(C)(=O)=O)n2ncccc12` (racemic) [Compound 103, (±)-N-((4-methoxy-6-methyl-2-oxo-1,2-dihydropyridin-3-yl)methyl)-6-methyl-7-(1-(N-methylmethylsulfonamido)ethyl)pyrrolo[1,2-b]pyridazine-5-carboxamide], for which the IC50 in experiment [1] was less than 0.1 µM; in experiment [2], 0.1 to 1 µM. For the same compound, the EC50 in experiment [3] (Homo sapiens, HeLa, 96 h) lay in the range of 0.4 to 2 µM.

With `COc1cc(C)[nH]c(=O)c1CNC(=O)c1c(C)c(C(C)c2ccn(C)c(=O)c2)n2ncccc12` (stereo not shown) [Compound 110, N-((4-methoxy-6-methyl-2-oxo-1,2-dihydropyridin-3-yl)methyl)-6-methyl-7-(1-(1-methyl-2-oxo-1,2-dihydropyridin-4-yl)ethyl)pyrrolo[1,2-b]pyridazine-5-carboxamide], the IC50 is less than 0.1 µM in experiment [1] and 0.1 to 1 µM in experiment [2]. For the same compound, the EC50 in experiment [3] (Homo sapiens, HeLa, 96 h) was 2 to 10 µM.

For the compound `COc1cc(C)[nH]c(=O)c1CNC(=O)c1c(C)c(C(C)c2ccccc2)n2ncccc12` (single isomer, unassigned) [Compound 106, (R or S)-N-((4-methoxy-6-methyl-2-oxo-1,2-dihydropyridin-3-yl)methyl)-6-methyl-7-(1-phenylethyl)pyrrolo[1,2-b]pyridazine-5-carboxamide], the EC50 in experiment [3] (96 hours) is less than 0.4 µM.

For `COc1cc(C)[nH]c(=O)c1CNC(=O)c1c(C)c(C(C)C2CCN(C(=O)C(F)F)CC2)n2ncccc12` (stereo not shown) [Compound 138, 7-(1-(1-(2,2-difluoroacetyl)piperidin-4-yl)ethyl)-N-((4-methoxy-6-methyl-2-oxo-1,2-dihydropyridin-3-yl)methyl)-6-methylpyrrolo[1,2-b]pyridazine-5-carboxamide], the results for the concentration for half-maximal inhibition (IC50) in experiment [1] and in experiment [2] were less than 0.1 µM and 1 to 10 µM, respectively. In addition, in experiment [4], the concentration giving a half-maximal response (EC50) was less than 0.4 µM.

Take `COc1cc(C)[nH]c(=O)c1CNC(=O)c1c(C)c(C(C)C2CCN(C(=O)C(F)(F)F)CC2)n2ncccc12` (stereo not shown) [Compound 139, N-((4-methoxy-6-methyl-2-oxo-1,2-dihydropyridin-3-yl)methyl)-6-methyl-7-(1-(1-(2,2,2-trifluoroacetyl)piperidin-4-yl)ethyl)pyrrolo[1,2-b]pyridazine-5-carboxamide]: the half-inhibitory concentration (IC50) in experiment [1] and in experiment [2] was less than 0.1 µM in each case. In addition, the EC50 in experiment [4] was less than 0.4 µM.

On to `COc1cc(C)[nH]c(=O)c1CNC(=O)c1c(Cl)c(C(C)C2CCN(CC(C)(C)O)CC2)n2ncccc12` (stereo not shown) [Compound 142, 6-chloro-7-(1-(1-(2-hydroxy-2-methylpropyl)piperidin-4-yl)ethyl)-N-((4-methoxy-6-methyl-2-oxo-1,2-dihydropyridin-3-yl)methyl)pyrrolo[1,2-b]pyridazine-5-carboxamide], for which the IC50 in experiment [1] and in experiment [2] was less than 0.1 µM throughout. Moreover, in experiment [4], the EC50 was less than 0.4 µM.

In the case of `COc1cc(C)[nH]c(=O)c1CNC(=O)c1c(C)c(C(C)C2CCN(C(=O)C(C)(F)F)CC2)n2ncccc12` (stereo not shown) [Compound 135, 7-(1-(1-(2,2-difluoropropanoyl)piperidin-4-yl)ethyl)-N-((4-methoxy-6-methyl-2-oxo-1,2-dihydropyridin-3-yl)methyl)-6-methylpyrrolo[1,2-b]pyridazine-5-carboxamide], the results for the IC50 in experiment [1] and in experiment [2] were less than 0.1 µM and 1 to 10 µM, respectively. Besides, in experiment [4], the EC50 was less than 0.4 µM.
